Measured values published in article PMC7193532 (Acta Crystallographica. Section D, Structural Biology, 2020).
*1 amine or outer side, *2 acyl side, *3 side chain or, on linkers, in order; H or OH if unused. Where a SMILES comes first, the peptide text is derived from it. Bridges are numbered along the chain shown (N, C = ends). [ ]: non-standard residue; d: D form. The star is where a group is joined. ξ: configuration not given here. Phe(3R-OH) = O=C([C@@H](N[*:1])[C@H](O[*:3])c1ccccc1)[*:2]; NMeTrp(4-OMe) = CN[CH](Cc1c[nH]c2cccc(OC)c12)C(=O)O; X1 = O=C(C(N[*:1])C(O)c1ccccc1)[*:2]; NMeT = CN[CH](C(=O)O)[CH](C)O; NMeI = CC[CH](C)[CH](NC)C(=O)O; ξNMe2Val = CC(C)C(C(=O)*)N(C)C; NMeL = CN[CH](CC(C)C)C(=O)O; NMeV = CN[CH](C(=O)O)C(C)C

Columns and labels:
Assay type in all cases: binding
ClpC1-FL Q17A = ClpC1-FL Q17A (Mycobacterium tuberculosis, UniProt P9WPC9, Q17A)
ClpC1-FL K85A = ClpC1-FL K85A (Mycobacterium tuberculosis, UniProt P9WPC9, K85A)
ClpC1-FL L92S/L96P = ClpC1-FL L92S/L96P (Mycobacterium tuberculosis, UniProt P9WPC9, L92S/L96P)
ClpC1-NTD MAFER = ClpC1-NTD MAFER (Mycobacterium tuberculosis, UniProt P9WPC9); details: relative to wild type
ClpC1-NTD MVFER = ClpC1-NTD MVFER (Mycobacterium tuberculosis, UniProt P9WPC9); details: relative to wild type
ClpC1-NTD FER = ClpC1-NTD FER (Mycobacterium tuberculosis, UniProt P9WPC9); details: relative to wild type
ClpC1-NTD AAFER = ClpC1-NTD AAFER (Mycobacterium tuberculosis, UniProt P9WPC9)
ClpC1-FL V14A = ClpC1-FL V14A (Mycobacterium tuberculosis, UniProt P9WPC9, V14A)

Row | Compound | reduction of binding, Q17A (ClpC1-FL Q17A) | reduction of binding affinity, K85A (ClpC1-FL K85A) | binding to double mutant L92S/L96P (in words) (ClpC1-FL L92S/L96P) | decrease of binding, insertion of Ala before Phe2 (ClpC1-NTD MAFER) | reduction of binding, insertion of Val before Phe2 (ClpC1-NTD MVFER) | reduction of binding affinity, deletion of Met1 (ClpC1-NTD FER) | reduction of binding affinity, Met1Ala mutation and Ala insertion (ClpC1-NTD AAFER) | reduction of binding affinity, V14A (ClpC1-FL V14A) | reduction of binding affinity, L92S/L96P (ClpC1-FL L92S/L96P)
1 | CCC(C)C(C(=O)NC1C(=O)N(C)C(C(C)O)C(=O)NC(C(C)C)C(=O)N(C)C(CC(C)C)C(=O)NC(C(C)C)C(=O)N(C)C(C(C)C)C(=O)N(C)C(Cc2c[nH]c3cccc(OC)c23)C(=O)NC(C(C)C)C(=O)NC(C(O)c2ccccc2)C(=O)NC(C(C)C)C(=O)OC1C)N(C)C(=O)C(NC(=O)C(C(C)C)N(C)C)C(C)C (centres unmarked) [ECU, ecumicin] (ξNMe2Val-V[NMeI]T[NMeT]V[NMeL]V[NMeV][NMeTrp(4-OMe)]V[X1]V; ester 3-C; configuration not given here) | sevenfold | ninefold | abolished binding | 72 fold | 82 fold | 62 fold | 68 fold | – | –
2 | CN[C@H](C(=O)N[C@H](C(=O)N[C@@H]1C(=O)N(C)[C@@H]([C@@H](C)O)C(=O)N[C@@H](C(C)C)C(=O)N(C)[C@@H](CC(C)C)C(=O)N[C@@H](C(C)C)C(=O)N(C)[C@@H](C(C)C)C(=O)N(C)[C@@H](Cc2c[nH]c3cccc(OC)c23)C(=O)N[C@@H](C(C)C)C(=O)N[C@@H]([C@H](O)c2ccccc2)C(=O)N[C@@H](C(C)C)C(=O)O[C@@H]1C)C(C)C)C(C)C [OMS-A, ohmyungsamycin A] (H-[NMeV]VT[NMeT]V[NMeL]V[NMeV][NMeTrp(4-OMe)]V[Phe(3R-OH)]V; ester 3-C) | – | – | abolished binding | – | – | – | – | – | –
3 | C/C=C/C[C@@H]1NC(=O)[C@H](CC(C)C)N(C)C(=O)[C@H](CC(C)C)NC(=O)[C@H](Cc2ccc(O)c([N+](=O)[O-])c2)NC(=O)[C@H](C)N2C(=O)[C@H](CC(C)C2O)N(C)C(=O)[C@H](Cc2cn(C(C)(C)C3CO3)c3ccccc23)NC1=O (some centres unmarked) [RUF-I, rufomycin I] | 17 fold | fivefold | – | – | sixfold | fivefold | – | eightfold | threefold
